≈ marks a conversion by molar mass, not a printed value. Like-named read-outs stand apart in the source and are kept apart here.
How the values were obtained:
[1] = test system: P. aeruginosa ATCC 27853 (APAE001); assay: MIC assay, CLSI broth microdilution; type: cell-based; conditions: Pseudomonas aeruginosa
Summary of the method: (§1)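 Test compounds were diluted two-fold at 2× strength in Mueller Hinton Broth, then combined 1:1 with saline-suspended bacteria from an overnight agar colony to reach 5×10^5 CFU/mL. Incubation followed at 35° C. for 20 hours in ambient air, per CLSI reference methods.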

[2] = test system: E. coli ATCC 25922 (AECO001); assay: MIC assay, CLSI broth microdilution; type: cell-based; design: MIC AECO001: unit not given here; conditions: for MIC: Escherichia coli
Summary of the method: as §1

[3] = ATCC27853, read-out: MIC APAE001
[4] = ATCC25922, read-out: MIC AECO001

MIC ([1]; Table 1, APAE001 is ATCC27853, read-out: MIC APAE001) [µg/mL]	MIC ([2]; Table 1, AECO001 is ATCC25922, read-out: MIC AECO001) [µg/mL]	MIC AECO001 ([2]; Table 3, E. coli ATCC25922)	Structure (SMILES)	MIC [1, 3] [µg/mL]	MIC [2, 4] [µg/mL]
–	–	–	CN[C@@H]1[C@@H](O)[C@@H](O[C@@H]2[C@@H](O)[C@H](O[C@H]3OC(CNCC4CCNCC4)=CC[C@H]3N)[C@@H](N)C[C@H]2NC(=O)[C@H](O)CN)OC[C@]1(C)O [Example 8, 6′-Methyl-piperidinyl-1-(3-amino-2(R)-hydroxy-propionyl)-sisomicin]	1 to 16 (≈ 1.58 to 25.3 µM)	< 1
–	–	–	CN[C@@H]1[C@@H](O)[C@@H](O[C@@H]2[C@@H](O)[C@H](O[C@H]3OC(CNCC(O)CO)=CC[C@H]3N)[C@@H](N)C[C@H]2NC(=O)CO)OC[C@]1(C)O (stereo partly shown) [Example 23, 6′-(2-Hydroxy-propanol)-1-(2-hydroxy-acetyl)-sisomicin]	> 16	> 16
–	–	–	CN[C@@H]1[C@@H](O)[C@@H](O[C@@H]2[C@@H](O)[C@H](O[C@H]3OC(CNC[C@H](O)C(=O)O)=CC[C@H]3N)[C@@H](N)C[C@H]2NC(=O)[C@@H](O)CCN)OC[C@]1(C)O [Example 50, 6′-(2(S)-Hydroxy-3-propanoic)-1-(4-amino-2(S)-hydroxy-butyryl)-sisomicin]	> 16	> 16
–	–	–	CN[C@@H]1[C@@H](O)[C@@H](O[C@@H]2[C@@H](O)[C@H](O[C@H]3OC(CNC[C@H]4C[C@H](N)C4)=CC[C@H]3N)[C@@H](N)C[C@H]2NC(=O)C2(O)CCNC2)OC[C@]1(C)O (stereo partly drawn) [Example 78, 6′-(Methyl-trans-3-amino-cyclobutyl)-1-(3-hydroxy-pyrrolidin-3-yl-acetyl)-sisomicin]	1 to 16 (≈ 1.55 to 24.9 µM)	< 1
–	–	–	CN[C@@H]1[C@@H](O)[C@@H](O[C@@H]2[C@@H](O)[C@H](O[C@H]3OC(CNCCCN)=CC[C@H]3N)[C@@H](N)C[C@H]2NC(=O)CO)OC[C@]1(C)O [Example 24, 6′-(3-Amino-propyl)-1-(2-hydroxy-acetyl)-sisomicin]	1 to 16 (≈ 1.78 to 28.4 µM)	1 to 16 (≈ 1.78 to 28.4 µM)
–	–	–	CN[C@@H]1[C@@H](O)[C@@H](O[C@@H]2[C@@H](O)[C@H](O[C@H]3OC(CNCC(O)CO)=CC[C@H]3N)[C@@H](N)C[C@H]2NS(=O)(=O)CCN)OC[C@]1(C)O (stereo partly shown) [Example 27, 6′-(2-Hydroxy-propanol)-1-(2-amino-ethylsulfonamide)-sisomicin]	> 16	1 to 16 (≈ 1.59 to 25.4 µM)
1 to 16 (≈ 1.78 to 28.5 µM)	< 1	1	CNCC1=CC[C@@H](N)[C@@H](O[C@H]2[C@H](O)[C@@H](O[C@H]3OC[C@](C)(O)[C@H](NC)[C@H]3O)[C@H](NC(=O)C3(O)CNC3)C[C@@H]2N)O1 [Example 61]	–	–
–	–	–	CN[C@@H]1[C@@H](O)[C@@H](O[C@@H]2[C@@H](O)[C@H](O[C@H]3OC(CNCC4CNC4)=CC[C@H]3N)[C@@H](N)C[C@H]2NC(=O)[C@@H](O)CN)OC[C@]1(C)O [Example 73, 6′-(Methyl-azetidin-3-yl)-1-(3-amino-2(S)-hydroxy-propionyl)-sisomicin]	1 to 16 (≈ 1.66 to 26.5 µM)	1 to 16 (≈ 1.66 to 26.5 µM)
–	–	–	CN[C@@H]1[C@@H](O)[C@@H](O[C@@H]2[C@@H](O)[C@H](O[C@H]3OC(CNCC(O)CCN)=CC[C@H]3N)[C@@H](N)C[C@H]2NC(=O)[C@@H](O)CN)OC[C@]1(C)O (stereo partly drawn) [Example 68, 6′-(2-Hydroxy-4-amino-butyl)-1-(3-amino-2(S)-hydroxy-propionyl)-sisomicin]	1 to 16 (≈ 1.61 to 25.7 µM)	1 to 16 (≈ 1.61 to 25.7 µM)
–	–	–	CN[C@@H]1[C@@H](O)[C@@H](O[C@@H]2[C@@H](O)[C@H](O[C@H]3OC(CN)=CC[C@H]3NC(=O)C(N)CCCN)[C@@H](N)C[C@H]2NC(=O)[C@@H](O)CCN)OC[C@]1(C)O (stereo partly drawn) [Example 99, 2′-(2,5-Diamino-pentoyl)-1-(4-amino-2(S)-hydroxy-butyryl)-sisomicin]	1 to 16 (≈ 1.51 to 24.1 µM)	1 to 16 (≈ 1.51 to 24.1 µM)
–	–	–	CN[C@@H]1[C@@H](O)[C@@H](O[C@@H]2[C@@H](O)[C@H](O[C@H]3OC(CNC(=O)C(O)CN)=CC[C@H]3N)[C@@H](N)C[C@H]2NC(=O)[C@@H](O)CN)OC[C@]1(C)O (stereo partly drawn) [Example 20, 6′-(3-Amino-2-hydroxy-propionyl)-1-(3-amino-2(S)-hydroxy-propionyl)-sisomicin]	> 16	> 16
–	–	–	CN[C@@H]1[C@@H](O)[C@@H](O[C@@H]2[C@@H](O)[C@H](O[C@H]3OC(CNCC4(CN)CC4)=CC[C@H]3N)[C@@H](N)C[C@H]2NC(=O)C2(O)CCNC2)OC[C@]1(C)O (stereo partly shown) [Example 79]	> 16	1 to 16 (≈ 1.55 to 24.9 µM)
–	–	–	CN[C@@H]1[C@@H](O)[C@@H](O[C@@H]2[C@@H](O)[C@H](O[C@H]3OC(CN)=CC[C@H]3NS(=O)(=O)CCN)[C@@H](N)C[C@H]2NC(=O)[C@@H](O)CCN)OC[C@]1(C)O [Example 93, 2′-(2-Amino-ethyl-sulfonamide)-1-(4-amino-2(S)-hydroxy-butyryl)-sisomicin]	1 to 16 (≈ 1.52 to 24.4 µM)	< 1
–	–	–	CN[C@@H]1[C@@H](O)[C@@H](O[C@@H]2[C@@H](O)[C@H](O[C@H]3OC(CNCCCN)=CC[C@H]3N)[C@@H](N)C[C@H]2NC(=O)C(O)C2CNC2)OC[C@]1(C)O (stereo partly shown) [Example 76, 6′-(3-Amino-propyl)-1-(2-(azetidin-3-yl)-2-hydroxy-acetyl)-sisomicin]	1 to 16 (≈ 1.62 to 25.9 µM)	1 to 16 (≈ 1.62 to 25.9 µM)
–	–	–	CN[C@@H]1[C@@H](O)[C@@H](O[C@@H]2[C@@H](O)[C@H](O[C@H]3OC(CNCCO)=CC[C@H]3N)[C@@H](N)C[C@H]2NC(=O)[C@H](O)CCN)OC[C@]1(C)O [Example 2, 6′-(2-Hydroxy-ethyl)-1-(4-amino-2(R)-hydroxy-butyryl)-sisomicin]	1 to 16 (≈ 1.69 to 27 µM)	1 to 16 (≈ 1.69 to 27 µM)
–	–	–	CN[C@@H]1[C@@H](O)[C@@H](O[C@@H]2[C@@H](O)[C@H](O[C@H]3OC(CNCC4(CN)CC4)=CC[C@H]3N)[C@@H](N)C[C@H]2NC(=O)C(O)C2CNC2)OC[C@]1(C)O (stereo partly shown) [Example 74, 6′-(Methyl-1-aminomethyl-cyclopropyl)-1-(2-(azetidin-3-yl)-2-hydroxy-acetyl)-sisomicin]	> 16	1 to 16 (≈ 1.55 to 24.9 µM)
–	–	–	CN[C@@H]1[C@@H](O)[C@@H](O[C@@H]2[C@@H](O)[C@H](O[C@H]3OC(CNCCCN)=CC[C@H]3N)[C@@H](N)C[C@H]2NC(=O)[C@H](O)CN)OC[C@]1(C)O [Example 11, 6′-(3-Amino-propyl)-1-(3-amino-2(R)-hydroxy-propionyl)-sisomicin]	1 to 16 (≈ 1.69 to 27 µM)	< 1
–	–	–	CN[C@@H]1[C@@H](O)[C@@H](O[C@@H]2[C@@H](O)[C@H](O[C@H]3OC(CNCC(O)CO)=CC[C@H]3N)[C@@H](N)C[C@H]2NC(=O)[C@@H](O)CCN)OC[C@]1(C)O (stereo partly drawn) [Example 19, 6′-(2-Hydroxy-propanol)-1-(4-amino-2(S)-hydroxy-butyryl)-sisomicin]	1 to 16 (≈ 1.61 to 25.7 µM)	< 1
–	–	–	CN[C@@H]1[C@@H](O)[C@@H](O[C@@H]2[C@@H](O)[C@H](O[C@H]3OC(CNC[C@H]4C[C@@H](N)[C@@H](O)C4)=CC[C@H]3N)[C@@H](N)C[C@H]2NC(=O)[C@@H](O)CN)OC[C@]1(C)O [Example 69, 6′-(Methyl-1(R)-amino-2(S)-hydroxy-cyclopent-4(S)-yl)-1-(3-amino-2(S)-hydroxy-propionyl)-sisomicin]	1 to 16 (≈ 1.54 to 24.7 µM)	< 1
–	–	–	CN[C@@H]1[C@@H](O)[C@@H](O[C@@H]2[C@@H](O)[C@H](O[C@H]3OC(CNCC(C)(C)CN)=CC[C@H]3N)[C@@H](N)C[C@H]2NC(=O)[C@@H](O)CN)OC[C@]1(C)O [Example 51, 6′-(2,2-Dimethyl-3-amino-propyl)-1-(3-amino-2(S)-hydroxy-propionyl)-sisomicin]	> 16	< 1
–	–	–	CN[C@@H]1[C@@H](O)[C@@H](O[C@@H]2[C@@H](O)[C@H](O[C@H]3OC(CNC[C@H]4C[C@H](N)C4)=CC[C@H]3N)[C@@H](N)C[C@H]2NC(=O)[C@@H](O)CCN)OC[C@]1(C)O [Example 33, 6′-(Methyl-trans-3-amino-cyclobutyl)-1-(4-amino-2(S)-hydroxy-butyryl)-sisomicin]	1 to 16 (≈ 1.58 to 25.3 µM)	< 1
–	–	–	CN[C@@H]1[C@@H](O)[C@@H](O[C@@H]2[C@@H](O)[C@H](O[C@H]3OC(CNCC(O)CCN)=CC[C@H]3N)[C@@H](N)C[C@H]2NC(=O)C2(O)CCNC2)OC[C@]1(C)O (stereo partly shown) [Example 35]	1 to 16 (≈ 1.54 to 24.7 µM)	< 1
–	–	–	CN[C@@H]1[C@@H](O)[C@@H](O[C@@H]2[C@@H](O)[C@H](O[C@H]3OC(CN)=CC[C@H]3NCCCN)[C@@H](N)C[C@H]2NC(=O)[C@@H](O)CCN)OC[C@]1(C)O [Example 91, 2′-(3-Amino-propyl)-1-(4-amino-2(S)-hydroxy-butyryl)-sisomicin]	< 1	< 1
–	–	–	CN[C@@H]1[C@@H](O)[C@@H](O[C@@H]2[C@@H](O)[C@H](O[C@H]3OC(CN)=CC[C@H]3NCC(C)(C)CN(C)C)[C@@H](N)C[C@H]2NC(=O)[C@@H](O)CCN)OC[C@]1(C)O [Example 94, 2′-(N,N-Dimethyl-2,2-dimethyl-3-amino-propyl)-1-(4-amino-2(S)-hydroxy-butyryl)-sisomicin]	> 16	1 to 16 (≈ 1.51 to 24.2 µM)
–	–	–	CN[C@@H]1[C@@H](O)[C@@H](O[C@@H]2[C@@H](O)[C@H](O[C@H]3OC(CNCC(N)CO)=CC[C@H]3N)[C@@H](N)C[C@H]2NC(=O)[C@@H](O)CCN)OC[C@]1(C)O (stereo partly drawn) [Example 30, 6′-(2-Amino-propanol)-1-(4-amino-2(S)-hydroxy-butyryl)-sisomicin]	1 to 16 (≈ 1.61 to 25.7 µM)	< 1
–	–	–	CN[C@@H]1[C@@H](O)[C@@H](O[C@@H]2[C@@H](O)[C@H](O[C@H]3OC(CN)=CC[C@H]3NCCO)[C@@H](N)C[C@H]2NC(=O)[C@@H](O)CCN)OC[C@]1(C)O [Example 98, 2′-(2-Hydroxy-ethyl)-1-(4-amino-2(S)-hydroxy-butyryl)-sisomicin]	1 to 16 (≈ 1.69 to 27 µM)	1 to 16 (≈ 1.69 to 27 µM)
–	–	–	CN[C@@H]1[C@@H](O)[C@@H](O[C@@H]2[C@@H](O)[C@H](O[C@H]3OC(CNCC4(O)CC(N)C4)=CC[C@H]3N)[C@@H](N)C[C@H]2NC(=O)C2(O)CNC2)OC[C@]1(C)O (stereo partly shown) [Example 47]	1 to 16 (≈ 1.55 to 24.8 µM)	1 to 16 (≈ 1.55 to 24.8 µM)
